Source: US20030100550A1, “Carboxamide diazepin derivatives, preparation method, use as medicines, pharmaceutical compositions and use thereof” (priority 2002, published 2003)

How the values were obtained:
Format in all cases: biochemical
Papain = biological target: T1, Papain (Carica papaya, UniProt P00784); test: Study of Papain inhibition (fluorescence); conditions: enzyme 20 ng/ml, 30 minutes at ambient temperature
T1 construct: purchased Sigma
T1 sequence (P00784 134-345): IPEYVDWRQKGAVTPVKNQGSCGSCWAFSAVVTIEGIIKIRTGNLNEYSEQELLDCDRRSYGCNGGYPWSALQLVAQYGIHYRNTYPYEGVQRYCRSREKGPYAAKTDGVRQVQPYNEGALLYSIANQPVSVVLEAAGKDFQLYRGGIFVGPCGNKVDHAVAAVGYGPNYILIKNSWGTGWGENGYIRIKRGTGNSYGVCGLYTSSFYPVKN
Procedure: (§1) The products to be tested (10 mM) are diluted to […] in DMSO and distributed into Nunc polystyrene 96 well plates at a rate of 2 μl per well. Column 12 of the plate is reserved for the controls and therefore receives […] of DMSO (without products) per well. The plates are stored at −80° C. and thawed on the day of the experiment.
(§2) The products are diluted to 50 μM by adding 38 μl of reaction buffer: sodium acetate 100 mM, EDTA 5 mM, DTT […] pH 5.5. The addition as well as all the operations by pipette are carried out with a CybiWell 96 tip pipette. After mixing the solutions, each product is transferred into 2 wells (duplicates) of a Greiner black 384 well plate at a rate of 10 μl per well. Two 96-well plates can therefore be tested in a 384-well plate.
(§3) A solution of substrate at 50 μM, Z-Val-arg-AMC (Calbiochem), is prepared in the reaction buffer. The substrate, is then distributed into all the wells of the 384-well plate (20 μl per well).
(§4) A solution of Cathepsin K at 12.5 ng/ml is prepared in the reaction buffer and distributed into all the wells of the 384-well plate (20 μl per well) except for the 16 wells serving as 100% inhibition controls (column 23 and 24, lines I to P) which receive 20 μl of enzyme-free buffer.
(§5) The plates are then incubated 2H at ambient temperature, then read on Fluoroskan (Labsystems): excitation 390 nm; emission 460 nm
(§6) The final concentrations of each of the reagents are: products 10 μM, substrate 20 μM, enzyme 5 ng/ml.
(§7) The % inhibition for each of the products is calculated by using points at 0 and 100% inhibition of each plate as references. The products presenting a significant inhibition are then retested on a range of concentrations from 50 to 0.5 μM to determine an IC50.
Study of Papain Inhibition:
(§8) Protocol identical to that of Cathepsin K except for:
Papain (Sigma), solution at 50 ng/ml, final concentration 20 ng/ml
Incubation for 30 minutes at ambient temperature

Cathepsin B = biological target: T2, Cathepsin B (Homo sapiens, UniProt P07858); test: Study of Cathepsin B inhibition (fluorescence, Z-arg-arg-AMC); conditions: for IC50: substrate Z-arg-arg-AMC 20 μM, enzyme 16 ng/ml, 1 hour at ambient temperature
T2 construct: purchased Calbiochem
Procedure: as §1, §2, §3, §4, §5, §6, §7
Study of Cathepsin B Inhibition:
as §8
Z-arg-arg-AMC substrate (Calbiochem), solution at 50 μM, final concentration 20 μM
Cathepsin B (Calbiochem), solution at 40 ng/ml, final concentration 16 ng/ml
Incubation for 1 hour at ambient temperature

Cathepsin K = biological target: T3, Cathepsin K (Homo sapiens, UniProt P43235); test: Study of Cathepsin K inhibition (fluorescence, Z-Val-arg-AMC); conditions: substrate Z-Val-arg-AMC 20 μM, enzyme 5 ng/ml, 2H at ambient temperature; read-out: Cathepsin K IC50
T3 sequence (P43235 115-329): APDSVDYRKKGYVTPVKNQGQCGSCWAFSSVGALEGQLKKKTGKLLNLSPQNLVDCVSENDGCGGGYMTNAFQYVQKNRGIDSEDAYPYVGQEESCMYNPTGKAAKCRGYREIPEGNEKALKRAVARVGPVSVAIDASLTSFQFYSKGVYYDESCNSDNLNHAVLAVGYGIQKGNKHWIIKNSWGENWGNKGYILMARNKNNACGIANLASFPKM
Procedure: Study of Cathepsin K Inhibition:
as §1, §2, §3, §4, §5, §6, §7

For `C=CCOC(=O)CC[C@H](NC(=O)[C@@H]1CCCN2C(=O)CC[C@H](NC(=O)Nc3ccc(Oc4ccccc4)cc3)C(=O)N12)C(=O)CSc1nc2ccccc2s1` [Example 129, (2-propenyl)(4S)6-[(benzothiazol-2-yl)thio]-4-[[[(1S,9S)-9-[[[(4-phenoxyphenyl)amino]carbonyl]amino]-octahydro-6,10-dioxo-6H-pyridazino[1,2-a][1,2]diazepine-1-yl]carbonyl]amino]-5-oxo-hexanoate], the IC50 (Papain) was 4 µM.

In the case of `O=C(Nc1ccc(Oc2ccccc2)cc1)N[C@H]1CCC(=O)N2CCC[C@@H](C(=O)N[C@@H](Cc3ccccc3)C(=O)COC(=O)Cc3ccsc3)N2C1=O` [Example 216, 9-[(9S)-[[(4-phenoxyphenyl)amino]carbonyl]amino]-N-[(2S)-1-phenyl-4-[1-oxo-2-(3-thienyl)ethoxy]-3-oxo-2-butyl]-octahydro-6,10-dioxo-6H-(1S)-pyridazino[1,2-a][1,2]diazepine-1-carboxamide], the IC50 (Papain) is reported as 6 µM.

In the case of `O=C(CSc1nc2ccccc2s1)[C@H](Cc1ccccc1)NC(=O)[C@@H]1CCCN2C(=O)CC[C@H](NS(=O)(=O)c3ccc(C(F)(F)F)cc3)C(=O)N12` [Example 241, 9-[(9S)-[[[4-(trifluoromethyl)phenyl]sulphonyl]amino]-N-[(2S)-1-phenyl-4-(2-benzothiazolyl)thio]-3-oxo-2-butyl]-octahydro-6,10-dioxo-6H-(1S)-pyridazino[1,2-a][1,2]diazepine-1-carboxamide], the IC50 (Papain) is reported as 7 µM.

Work on `COc1cccc(C(=O)N[C@H]2CCC(=O)N3CCC[C@@H](C(=O)N[C@H](C(=O)CSc4nc5ccccc5s4)C(C)C)N3C2=O)c1` [Example 366, 9-[(9S)-(3-methoxybenzoyl)amino]-N-[(3S)-1-[(benzothiazol-2-yl)thio]-4-methyl-2-oxo-3-pentyl]-octahydro-6,10-dioxo-6H-(1S)-pyridazino[1,2-a][1,2]diazepine-1-carboxamide] yielded an IC50 (Papain) of 17 µM.

Work on `C[C@H](NC(=O)[C@@H]1CCCN2C(=O)CC[C@H](NC(=O)NC3CCCCC3)C(=O)N12)C(=O)COC(=O)c1c(Cl)cccc1Cl` [Example 433, 9-[(9S)-[(cyclohexylamino)carbonyl]amino]-N-[(2S)-4-[(2,6-dichlorobenzoyl)oxy]-3-oxo-2-butyl]-octahydro-6,10-dioxo-6H-(1S)-pyridazino[1,2-a][1,2]diazepine-1-carboxamide] yielded an IC50 (Cathepsin B) of 4 µM and an IC50 (Cathepsin K) of 20 µM.

With `C[C@H](NC(=O)[C@@H]1CCCN2C(=O)CC[C@H](NC(=O)Nc3ccc(Oc4ccccc4)cc3)C(=O)N12)C(=O)COC(=O)c1c(Cl)cccc1Cl` [Example 453, 9-[(9S)-[[(4-phenoxyphenyl)amino]carbonyl]amino]-N-[(2S)-4-[(2,6-dichlorobenzoyl)oxy]-3-oxo-2-butyl]-octahydro-6,10-dioxo-6H-(1S)-pyridazino[1,2-a][1,2]diazepine-1-carboxamide] the IC50 (Cathepsin B) was 9 µM and the IC50 (Cathepsin K) was 20 µM.

For `C[C@H](NC(=O)[C@@H]1CCCN2C(=O)CC[C@H](NC(=O)NCCc3cccs3)C(=O)N12)C(=O)COC(=O)c1c(Cl)cccc1Cl` [Example 473, 9-[(9S)-[[[2-(thien-2-yl)-ethyl]amino]carbonyl]amino]-N-[(2S)-4-[(2,6-dichlorobenzoyl)oxy]-3-oxo-2-butyl]-octahydro-6,10-dioxo-6H-(1S)-pyridazino[1,2-a][1,2]diazepine-1-carboxamide], the IC50 (Cathepsin B) was 1.5 µM and the IC50 (Cathepsin K) was 20 µM.

In the case of “(2-propenyl)(4S)6-diazo-4-[[[(1S,9S)-9-[[[[2-(p-2-yl)-ethyl]amino]carbonyl]amino]-octahydro-6,10-dioxo-6H-pyridazino[1,2-a][1,2]diazepine-1-yl]carbonyl]amino]-5-oxo-hexanoate [Example 44]”, the “Cathepsin B, percentage in parentheses beside IC50 value (% inhibition)” value (Cathepsin B; printed beside 20 μM, meaning not explained) is reported as 40% and the IC50 (Cathepsin K) is reported as 2 µM.
